This note sets out measurements from PMC11864979, “First-in-class ultralong-target-residence-time p38α inhibitors as a mitosis-targeted therapy for colorectal cancer” (Nature Cancer, 2025).

Common to all, as to assay: selectivity profiling in a panel of 340 wild-type kinases (Reaction Biology Europe)
What all share (assay type): binding

In test [1] the target is T1, 340 wild-type kinases (Homo sapiens, UniProt Q9H4B4).
T1 construct: purchased Reaction Biology Europe

The target in test [2] is T2, 340 wild-type kinases (Homo sapiens, UniProt P49841).
T2 construct: purchased Reaction Biology Europe
T2 sequence (P49841 whole entry): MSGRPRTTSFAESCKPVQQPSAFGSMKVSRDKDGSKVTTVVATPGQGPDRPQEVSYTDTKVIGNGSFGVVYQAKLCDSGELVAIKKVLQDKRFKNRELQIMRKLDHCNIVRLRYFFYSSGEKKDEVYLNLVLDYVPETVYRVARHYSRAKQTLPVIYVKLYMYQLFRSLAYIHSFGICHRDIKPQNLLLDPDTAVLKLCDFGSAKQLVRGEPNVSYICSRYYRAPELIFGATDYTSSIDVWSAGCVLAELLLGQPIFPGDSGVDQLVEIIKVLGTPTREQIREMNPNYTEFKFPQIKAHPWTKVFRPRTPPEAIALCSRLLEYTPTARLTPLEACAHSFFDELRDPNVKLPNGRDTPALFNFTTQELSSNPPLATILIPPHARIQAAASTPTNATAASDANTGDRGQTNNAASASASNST

For test [3], the target named is T3, 340 wild-type kinases (Homo sapiens, UniProt Q96PY6).
T3 construct: purchased Reaction Biology Europe
T3 sequence (Q96PY6 1-1258): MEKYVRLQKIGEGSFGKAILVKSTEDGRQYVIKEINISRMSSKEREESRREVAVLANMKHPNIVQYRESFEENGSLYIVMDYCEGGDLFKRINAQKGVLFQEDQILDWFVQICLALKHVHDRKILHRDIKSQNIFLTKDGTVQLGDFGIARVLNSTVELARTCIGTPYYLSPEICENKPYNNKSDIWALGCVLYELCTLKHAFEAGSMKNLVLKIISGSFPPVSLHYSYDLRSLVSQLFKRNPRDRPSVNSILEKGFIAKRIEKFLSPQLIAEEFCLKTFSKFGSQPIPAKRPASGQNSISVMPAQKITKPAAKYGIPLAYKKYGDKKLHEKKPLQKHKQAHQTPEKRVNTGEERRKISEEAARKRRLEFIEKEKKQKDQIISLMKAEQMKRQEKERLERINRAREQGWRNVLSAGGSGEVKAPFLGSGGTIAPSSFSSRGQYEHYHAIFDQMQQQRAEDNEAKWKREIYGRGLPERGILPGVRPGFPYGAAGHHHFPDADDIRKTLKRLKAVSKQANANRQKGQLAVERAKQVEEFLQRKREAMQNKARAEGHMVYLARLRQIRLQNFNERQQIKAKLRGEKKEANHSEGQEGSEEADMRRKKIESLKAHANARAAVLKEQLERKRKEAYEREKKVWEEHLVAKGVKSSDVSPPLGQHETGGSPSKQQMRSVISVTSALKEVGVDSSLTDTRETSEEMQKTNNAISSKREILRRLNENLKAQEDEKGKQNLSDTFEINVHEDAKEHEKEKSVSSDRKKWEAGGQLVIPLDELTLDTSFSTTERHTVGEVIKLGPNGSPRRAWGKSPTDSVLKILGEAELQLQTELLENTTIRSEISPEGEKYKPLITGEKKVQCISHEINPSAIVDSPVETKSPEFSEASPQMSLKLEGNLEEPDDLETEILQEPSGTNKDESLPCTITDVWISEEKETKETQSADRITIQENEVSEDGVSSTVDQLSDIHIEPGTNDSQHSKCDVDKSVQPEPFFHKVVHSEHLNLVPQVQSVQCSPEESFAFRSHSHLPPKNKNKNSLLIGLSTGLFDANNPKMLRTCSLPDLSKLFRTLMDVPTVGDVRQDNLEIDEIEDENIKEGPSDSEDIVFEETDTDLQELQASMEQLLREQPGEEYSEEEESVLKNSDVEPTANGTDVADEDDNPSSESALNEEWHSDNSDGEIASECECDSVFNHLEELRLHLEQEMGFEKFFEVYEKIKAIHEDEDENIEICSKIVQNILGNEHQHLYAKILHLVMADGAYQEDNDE

The target of test [4] is T4, 340 wild-type kinases (Homo sapiens, UniProt Q13043).
T4 construct: purchased Reaction Biology Europe
T4 sequence (Q13043 1-487): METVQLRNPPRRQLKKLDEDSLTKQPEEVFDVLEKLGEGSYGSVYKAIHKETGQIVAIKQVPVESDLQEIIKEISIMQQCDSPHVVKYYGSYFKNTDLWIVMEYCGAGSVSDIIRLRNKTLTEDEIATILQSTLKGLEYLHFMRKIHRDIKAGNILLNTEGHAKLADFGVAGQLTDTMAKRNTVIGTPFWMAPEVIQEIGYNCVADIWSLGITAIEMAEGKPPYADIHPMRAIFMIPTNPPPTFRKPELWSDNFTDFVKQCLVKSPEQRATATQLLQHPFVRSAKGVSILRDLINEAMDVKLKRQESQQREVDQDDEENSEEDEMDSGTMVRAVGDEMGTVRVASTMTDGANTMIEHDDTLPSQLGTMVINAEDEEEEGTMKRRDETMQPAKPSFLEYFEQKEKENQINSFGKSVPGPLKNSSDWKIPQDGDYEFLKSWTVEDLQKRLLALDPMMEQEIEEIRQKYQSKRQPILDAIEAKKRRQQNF

Test [5] has as its target T5, 340 wild-type kinases (Homo sapiens, UniProt P51955).
T5 construct: purchased Reaction Biology Europe
T5 sequence (P51955 1-445): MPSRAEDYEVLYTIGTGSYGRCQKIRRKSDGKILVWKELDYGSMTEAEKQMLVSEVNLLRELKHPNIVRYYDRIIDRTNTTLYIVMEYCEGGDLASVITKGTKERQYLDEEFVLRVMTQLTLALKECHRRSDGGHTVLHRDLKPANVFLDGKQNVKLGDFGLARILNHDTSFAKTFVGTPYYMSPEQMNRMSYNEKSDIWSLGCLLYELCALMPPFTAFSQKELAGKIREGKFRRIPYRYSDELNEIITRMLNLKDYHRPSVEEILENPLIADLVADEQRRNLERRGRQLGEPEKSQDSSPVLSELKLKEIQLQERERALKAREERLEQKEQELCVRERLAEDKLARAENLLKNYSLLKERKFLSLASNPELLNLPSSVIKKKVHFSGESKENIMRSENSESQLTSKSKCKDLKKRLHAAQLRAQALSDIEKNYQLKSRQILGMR

Test [6] deals with T6, 340 wild-type kinases (Homo sapiens, UniProt P32298).
T6 construct: purchased Reaction Biology Europe
T6 sequence (P32298 whole entry): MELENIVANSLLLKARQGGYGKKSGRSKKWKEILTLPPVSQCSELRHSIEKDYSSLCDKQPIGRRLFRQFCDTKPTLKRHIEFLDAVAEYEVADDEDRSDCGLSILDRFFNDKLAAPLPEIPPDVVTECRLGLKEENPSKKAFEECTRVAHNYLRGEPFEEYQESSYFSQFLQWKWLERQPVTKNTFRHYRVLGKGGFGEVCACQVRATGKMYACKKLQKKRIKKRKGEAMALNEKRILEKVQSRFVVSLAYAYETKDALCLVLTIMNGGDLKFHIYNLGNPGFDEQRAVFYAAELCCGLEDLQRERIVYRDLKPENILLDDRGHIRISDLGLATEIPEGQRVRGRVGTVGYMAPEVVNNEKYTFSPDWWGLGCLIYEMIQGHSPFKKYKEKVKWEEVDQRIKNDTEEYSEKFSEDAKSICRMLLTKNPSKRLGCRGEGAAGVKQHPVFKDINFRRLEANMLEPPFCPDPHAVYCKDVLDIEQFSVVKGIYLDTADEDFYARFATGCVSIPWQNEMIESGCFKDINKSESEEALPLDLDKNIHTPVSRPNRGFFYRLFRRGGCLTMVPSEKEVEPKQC

The structures appear in SMILES notation. Like-named read-outs stand apart in the source and are kept apart here.

T1 sequence (Q9H4B4 whole entry): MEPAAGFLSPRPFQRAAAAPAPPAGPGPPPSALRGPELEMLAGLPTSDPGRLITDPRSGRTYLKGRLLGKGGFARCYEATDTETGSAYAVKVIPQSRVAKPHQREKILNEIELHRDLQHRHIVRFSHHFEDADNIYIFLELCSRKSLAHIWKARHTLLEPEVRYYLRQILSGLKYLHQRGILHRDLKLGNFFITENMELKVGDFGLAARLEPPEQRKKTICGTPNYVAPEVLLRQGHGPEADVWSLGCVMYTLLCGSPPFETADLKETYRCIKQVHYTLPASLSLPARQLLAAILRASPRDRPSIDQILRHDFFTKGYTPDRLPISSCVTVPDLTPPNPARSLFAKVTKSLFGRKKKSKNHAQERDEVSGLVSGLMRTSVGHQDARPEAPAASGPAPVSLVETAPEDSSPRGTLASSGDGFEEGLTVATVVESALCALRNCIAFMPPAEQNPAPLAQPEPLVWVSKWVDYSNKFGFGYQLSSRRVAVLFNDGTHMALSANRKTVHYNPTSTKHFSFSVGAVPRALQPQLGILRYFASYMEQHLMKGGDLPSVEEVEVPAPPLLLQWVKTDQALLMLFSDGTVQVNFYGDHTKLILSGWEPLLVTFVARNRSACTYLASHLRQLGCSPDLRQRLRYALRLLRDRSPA

For `CNC(=O)c1ccc2c(c1)C(=O)c1ccc(Nc3ccc(F)c(NC(=O)C4CC4)c3)cc1CC2` [Compound 2015], the remaining activity at 0.2 µM at 340 wild-type kinases [1] (0.2 µM 2015, read-out: PLK3 residual activity) was found to be 101%; on 340 wild-type kinases [1] (PLK3, 0.2 µM, read-out: residual activity), 101%; on 340 wild-type kinases [2] (0.2 µM 2015, read-out: GSK3beta residual activity) it was 98.7%; on 340 wild-type kinases [2] (GSK3beta, 0.2 µM, read-out: residual activity) it was 98.7%; at 340 wild-type kinases [3] (read-out: NEK1 residual activity), 86.5%; on 340 wild-type kinases [3] (read-out: residual activity), 86.5%. Further, the remaining activity at 0.2 µM at 340 wild-type kinases [4] (0.2 µM 2015, read-out: MST1 residual activity) amounted to 98.1%; at 340 wild-type kinases [4] (MST1, 0.2 µM, read-out: residual activity) it was 98.1%; on 340 wild-type kinases [5] (0.2 µM 2015, read-out: NEK2 residual activity), 104%; at 340 wild-type kinases [5] (NEK2, 0.2 µM, read-out: residual activity) it was 104%; at 340 wild-type kinases [6] (0.2 µM 2015, read-out: GRK4 residual activity) it was 123%; at 340 wild-type kinases [6] (GRK4, 0.2 µM, read-out: residual activity), 123%. Further, the remaining activity at 1 µM at 340 wild-type kinases [1] (1 µM 2015, read-out: PLK3 residual activity) stood at 134%; at 340 wild-type kinases [1] (PLK3, 1 µM, read-out: residual activity) it was 134%; on 340 wild-type kinases [2] (1 µM 2015, read-out: GSK3beta residual activity), 86.4%; at 340 wild-type kinases [2] (GSK3beta, 1 µM, read-out: residual activity), 86.3%; on 340 wild-type kinases [3] (1 µM 2015, read-out: NEK1 residual activity), 81.3%; at 340 wild-type kinases [3] (NEK1, 1 µM, read-out: residual activity) it was 81.3%. Moreover, the remaining activity at 1 µM was 100% on 340 wild-type kinases [4] (1 µM 2015, read-out: MST1 residual activity); 100% on 340 wild-type kinases [4] (MST1, 1 µM, read-out: residual activity); 95% on 340 wild-type kinases [5] (1 µM 2015, read-out: NEK2 residual activity); 95% on 340 wild-type kinases [5] (NEK2, 1 µM, read-out: residual activity); 104% on 340 wild-type kinases [6] (1 µM 2015, read-out: GRK4 residual activity); 104% at 340 wild-type kinases [6] (GRK4, 1 µM, read-out: residual activity).
